Reference: patent US10143686B2, “Oxidosqualene cyclase as a protein target for anticancer therapeutics” (The Curators of the University of Missouri, priority 2010, dated 2018)
Structures can show the parent of a compound that is named as a salt. Where two headings read alike, the source gives them in different places.

Legend:
Assay type in all cases: cell-based
H69AR lung cancer cells = assay: SRB cell viability assay, H69AR; conditions: Homo sapiens
Method: (§1) The effect of OSC inhibition was evaluated in additional cancer cell lines as well. Cancer cell lines may be purchased from ATCC (Manassas, Va.). The SRB assay has been employed for determination of the inhibitory effects of RO 48-8071 on growth of different cancer cells. Cells were seeded into 96-well plates and incubated overnight at 37° C. with 5% CO2. The culture medium was removed after 24 hours, and cells were washed with DMEM/F12 medium and then treated with various concentrations of RO 48-8071 in 5% FBS culture medium for 24 and 48 hours. Surviving or adherent cells were fixed in situ by withdrawing the growth medium, adding 100 μl PBS and 100 μl 50% trichloroacetic acid and then incubating at 4° C. for one hour. Cells were washed with ice-cold water, dried at room temperature (RT), and then stained with 50 μl 4% SRB for eight minutes at RT. Unbound dye was removed by washing with cold 1% acetic acid for five times, and plates were dried at RT. Bound stain was solubilized with 150 μl 10 mM Tris buffer and absorbance of samples was read at 520 nm with a SpecTRA MAX 190 microplate reader (Molecular Devices, Sunnyvale, Calif.). Six wells were used for each concentration, and each experiment was performed two to three times.
Effect of RO 48-8071 on lung cancer cell line H69AR viability. […] The culture mediums employed 20% FBS RPMI-1640 for culture and 10% FBS RPMI-1640 for treatment.

[1] = test system: BT-474, MCF-7, BT-20 and MDA-231 human breast cancer cells; assay: Annexin V / PI apoptosis assay, breast cancer cells; conditions: 24 hours
Source text: Apoptosis is a normal physiologic process which occurs during embryonic development as well as in maintenance of tissue homeostasis. The apoptotic program is characterized by certain morphologic features, including loss of plasma membrane asymmetry and attachment, condensation of the cytoplasm and nucleus, and internucleosomal cleavage of DNA. […]. In apoptotic cells, the membrane phospholipid phosphatidylserine (PS) is translocated from the inner to the outer leaflet of the plasma membrane, thereby exposing PS to the external cellular environment. Annexin V is a 35-36 kDa Ca2+ dependent phospholipid-binding protein that has a high affinity for PS, and binds to cells with exposed PS. Annexin V may be conjugated to fluorochromes including FITC. […]
FITC Annexin V staining precedes the loss of membrane integrity which accompanies the latest stages of cell death resulting from either apoptotic or necrotic processes. […] However, when apoptosis is measured over time, cells can be often tracked from FITC Annexin V and PI negative (viable, or no measurable apoptosis), to FITC Annexin V positive and PI negative (early apoptosis, membrane integrity is present) and finally to FITC Annexin V and PI positive (end stage apoptosis and death). […]

[2] = test system: T47-D breast cancer cells; assay: SRB cell viability assay, T47-D; conditions: for IC50: Homo sapiens, T47D, Breast (ER+ PR+)
Method: The sulforhodamine B (SRB) assay was employed to evaluate the effect of OSC inhibitor Ro 48-8071 on viability of breast cancer and normal mammary gland cells with slight modification of the original procedure established at NCI. Accordingly, the cells were seeded in 96-well plates in 100 μl culture medium and incubated overnight at 37° C. with 5% CO2. […] The surviving or adherent cells were fixed in situ by withdrawing the growth medium and adding 100 μl of PBS and 100 μl of 50% cold trichloroacetic acid and then incubating at 4° C. for 1 h. The surviving cells were washed with ice-water, dried at room temperature (RT), and then stained with 50 μl 4% SRB for 8 min at RT. Unbound dye was removed by washing 5 times with cold 1% acetic acid, and the plates were dried at RT. Bound stain was solubilized with 150 μl 10 mM Tris buffer, and absorbance of samples were measured at 520 nm with a SpecTRA MAX 190 microplate reader (Sunnyvale, Calif.). In these experiments on BT-474, T47-D, and AG11132A cell lines, six wells were used for each concentration, and each experiment was performed at least twice.
as §1
Effect of RO 48-8071 on breast cancer cell line T47-D viability. […] The culture mediums employed 10% FBS DMEM/F12 for culture and 5% FBS DMEM/F12 for treatment.

[3] = test system: Capan-1 pancreatic cancer cells; assay: SRB cell viability assay, Capan-1; conditions: Homo sapiens, Capan-1, Pancreas
Method: as §1
Effect of RO 48-8071 on pancreatic cancer cell line Capan-1 viability. […] The culture mediums employed 20% FBS IMDM for culture and 10% FBS IMDM for treatment.

[4] = 24 hours, read-out: IC50 (μM) (24 hours)
[5] = 48 hours, read-out: IC50 (μM) (48 hours)

SMILES: C=CCN(C)CCCCCCOc1ccc(C(=O)c2ccc(Br)cc2)c(F)c1 [Ro 48-8071, 4′-[6-(Allylmethylamino)hexyloxy]-4-bromo-2′-fluorobenzophenone fumarate]
- IC50 (H69AR lung cancer cells; [4]): 10.8 ± 0.609 µM
- IC50 (H69AR lung cancer cells; [5]): 8.11 ± 0.355 µM
- apoptosis and cell death (annexin V / PI positive cells) [1]: Induces Apoptosis and Cell Death
- effect on cell viability (SRB) ([2]; 24 hours, dose-dependent, FIG. 2B): significantly inhibit the viability
- IC50 [2, 4]: 11.5 ± 0.358 µM
- IC50 [2, 5]: 7.76 ± 0.293 µM
- IC50 [3, 4]: 18.6 ± 1.62 µM
- IC50 [3, 5]: 13.7 ± 0.168 µM
